Laboratory results from ChEMBL document CHEMBL1201862, “PubChem BioAssay data set” (2004).
One block for each molecule: values may come before it. Activity calls are given as the source filed them.

Key:
[1] = biological target: Intestinal-type alkaline phosphatase (Mus musculus, UniProt P24822); assay: PubChem AID 488875; assay type: functional
[2] = biological target: T1, Intestinal-type alkaline phosphatase (Homo sapiens, UniProt P09923); assay: human intestinal alkaline phosphatase activators, dose response, biochemical, luminescence, uHTS hits (AID 463120); assay type: functional
[3] = biological target: T1, Intestinal-type alkaline phosphatase; assay: activation of human intestinal alkaline phosphatase – biochemical, luminescent, uHTS hits, set 2, dose response (AID 488817); assay type: functional;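 further: potency of activators that raise enzyme activity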
[4] = biological target: T2, Alkaline phosphatase, tissue-nonspecific isozyme (Homo sapiens, UniProt P05186); assay: activation of tissue-nonspecific alkaline phosphatase – biochemical, TNAP isozyme, human IAP uHTS hits, selectivity assay for human IAP activator project, dose response (AID 488886); assay type: functional;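 further: potency of compounds raising TNAP activity as a selectivity check on IAP activators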
T2 sequence (P05186 whole entry): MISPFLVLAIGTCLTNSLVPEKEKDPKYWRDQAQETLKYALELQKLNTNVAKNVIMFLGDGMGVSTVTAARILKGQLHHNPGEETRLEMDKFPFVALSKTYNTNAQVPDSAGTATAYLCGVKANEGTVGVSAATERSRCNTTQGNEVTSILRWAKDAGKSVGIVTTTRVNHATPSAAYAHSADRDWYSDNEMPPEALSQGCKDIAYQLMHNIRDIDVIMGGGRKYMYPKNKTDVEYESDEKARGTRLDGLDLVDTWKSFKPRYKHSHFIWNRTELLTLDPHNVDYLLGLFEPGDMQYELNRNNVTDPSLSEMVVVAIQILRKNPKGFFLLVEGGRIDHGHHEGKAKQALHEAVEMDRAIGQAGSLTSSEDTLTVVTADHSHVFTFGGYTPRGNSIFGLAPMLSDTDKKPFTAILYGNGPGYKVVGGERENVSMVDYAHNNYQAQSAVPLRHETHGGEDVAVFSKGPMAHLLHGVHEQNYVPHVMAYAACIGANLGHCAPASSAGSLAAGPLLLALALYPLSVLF

HEK293 [5] = assay: inhibition of NOD1-driven NF-kB reporter – cell-based, luminescence, uHTS, primary screen (AID 1578); assay type: functional; details: Homo sapiens
HEK293 [6] = assay: cells; assay type: functional, cell-based; details: Homo sapiens
HEK293 [7] = assay: cells; assay type: functional, cell-based; details: Homo sapiens; remark: listed apart in the source
HEK293 [8] = assay: NOD2 signaling inhibitors in MDP-stimulated cells, cell-based, uHTS, luminescence (AID 2001); assay type: functional; details: Homo sapiens
[9] = biological target: COUP transcription factor 2 (Homo sapiens, UniProt P24468); assay: Luminescence-based cell-based high throughput dose response assay to identify inhibitors of COUP-TFII (NR2F2).; assay type: functional;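 further: HEK293 cells transiently cotransfected with COUP-TFII expression vector and reporter; luciferase reporter luminescence driven by COUP-TFII from the pX2-168 reporter plasmid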
Cytochrome P450 2C9 [10] = biological target: T3, Cytochrome P450 2C9 (Homo sapiens, UniProt P11712)
Cytochrome P450 3A4 = Cytochrome P450 3A4 (Homo sapiens, UniProt P08684);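 further: CYP3A4 tested as one member of a cytochrome P450 panel screen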
[11] = biological target: Ras and Rab interactor 1/Tyrosine-protein kinase ABL1 (Homo sapiens, UniProt P00519+Q13671); assay type: functional;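 further: biochemical TR-FRET dose-response test measuring inhibition of binding between Rin1 and Abl proteins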
Trypsin = Trypsin (Sus scrofa, UniProt P00761); assay: trypsin protease activity blockade – biochemical, quenched peptide fluorescence, cherry-pick, selectivity assay for Rce1 protease inhibitor project, dose response (AID 488789)
CAAX prenyl protease 2 = CAAX prenyl protease 2 (Homo sapiens, UniProt Q9Y256); assay: inhibition of Ras-converting CAAX protease Rce1 – biochemical, yeast membranes, quenched-peptide fluorescence, cherry-pick, dose response (AID 588849)
Cytochrome P450 2C9 [12] = biological target: T3, Cytochrome P450 2C9; remark: listed apart in the source
[13] = blockers of HIV-1 envelope-mediated cell-cell fusion – cherry-pick, dose response (AID 652057); assay type: functional, cell-based
[14] = blockers of HIV-1 ZM109 envelope-driven cell-cell fusion – HeLa effector, CEM target cells, luciferase, cherry-pick, dose response (AID 652058); assay type: functional, cell-based;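 further: luciferase signal from HIV-1 Env mediated cell-cell fusion of effector and target cells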
[15] = off-target signal loss in HeLa-CEM21 co-culture – HeLa F-luc CTL cells, cherry-picked, counter-screen for HIV-1 Env fusion inhibitor project, dose response (AID 652040); assay type: functional, cell-based;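 further: potency for signal decrease marking cytotoxic or nonspecific inhibition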
[16] = HIV-1 AD8 envelope cell-cell fusion blockers – cherry-pick, dose response (AID 652062); assay type: functional, cell-based;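 further: luciferase signal from cell-cell fusion driven by HIV-1 clade B AD8 Env; potency is for inhibitors of fusion seen as a drop in luminescence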
HEK293 [17] = assay: cells; details: Homo sapiens
HEK293 [18] = assay: cells; details: Homo sapiens; remark: listed apart in the source

T1 sequence (P09923 whole entry): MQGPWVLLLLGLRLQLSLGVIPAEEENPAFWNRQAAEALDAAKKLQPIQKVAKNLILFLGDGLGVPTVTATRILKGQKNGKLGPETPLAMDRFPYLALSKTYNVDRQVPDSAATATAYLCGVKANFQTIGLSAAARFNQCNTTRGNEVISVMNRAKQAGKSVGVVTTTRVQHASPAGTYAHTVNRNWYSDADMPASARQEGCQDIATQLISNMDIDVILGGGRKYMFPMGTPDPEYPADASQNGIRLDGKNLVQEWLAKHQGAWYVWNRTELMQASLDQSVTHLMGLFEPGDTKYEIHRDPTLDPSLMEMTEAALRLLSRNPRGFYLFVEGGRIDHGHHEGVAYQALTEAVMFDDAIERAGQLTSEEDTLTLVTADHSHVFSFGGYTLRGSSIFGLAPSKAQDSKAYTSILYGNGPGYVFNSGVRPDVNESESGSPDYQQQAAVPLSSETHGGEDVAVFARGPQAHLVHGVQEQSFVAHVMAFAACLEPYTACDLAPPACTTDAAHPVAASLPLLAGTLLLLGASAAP
T3 sequence (P11712 whole entry): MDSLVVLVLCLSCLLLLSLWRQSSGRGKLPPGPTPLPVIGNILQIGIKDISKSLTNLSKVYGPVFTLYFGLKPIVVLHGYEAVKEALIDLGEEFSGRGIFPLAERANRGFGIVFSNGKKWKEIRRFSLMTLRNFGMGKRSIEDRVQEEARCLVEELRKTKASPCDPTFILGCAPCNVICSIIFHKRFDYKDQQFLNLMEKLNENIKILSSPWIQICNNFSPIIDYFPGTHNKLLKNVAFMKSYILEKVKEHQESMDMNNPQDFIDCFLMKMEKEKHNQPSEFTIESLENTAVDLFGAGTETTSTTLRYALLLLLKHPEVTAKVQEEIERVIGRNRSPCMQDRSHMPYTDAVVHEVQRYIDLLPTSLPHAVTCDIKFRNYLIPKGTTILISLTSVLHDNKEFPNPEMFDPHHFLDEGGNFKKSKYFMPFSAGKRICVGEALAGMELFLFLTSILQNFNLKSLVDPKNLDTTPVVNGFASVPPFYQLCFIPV
Intestinal-type alkaline phosphatase (Mus musculus, UniProt P24822), sequence (P24822 whole entry): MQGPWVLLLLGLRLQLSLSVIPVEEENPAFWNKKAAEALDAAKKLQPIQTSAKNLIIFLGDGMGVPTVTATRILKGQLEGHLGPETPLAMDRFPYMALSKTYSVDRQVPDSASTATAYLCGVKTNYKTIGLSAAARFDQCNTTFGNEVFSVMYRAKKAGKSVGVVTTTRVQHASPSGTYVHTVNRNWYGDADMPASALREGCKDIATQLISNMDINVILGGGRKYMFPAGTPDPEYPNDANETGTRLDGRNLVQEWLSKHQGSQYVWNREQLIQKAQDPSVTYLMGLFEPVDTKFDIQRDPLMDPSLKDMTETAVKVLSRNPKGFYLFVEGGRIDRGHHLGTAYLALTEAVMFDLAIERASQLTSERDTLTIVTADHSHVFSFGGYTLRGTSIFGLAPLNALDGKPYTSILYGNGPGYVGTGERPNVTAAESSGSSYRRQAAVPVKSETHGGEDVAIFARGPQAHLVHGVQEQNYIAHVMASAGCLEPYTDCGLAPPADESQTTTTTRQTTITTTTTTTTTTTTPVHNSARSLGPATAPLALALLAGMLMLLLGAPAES
Trypsin, sequence (P00761 whole entry): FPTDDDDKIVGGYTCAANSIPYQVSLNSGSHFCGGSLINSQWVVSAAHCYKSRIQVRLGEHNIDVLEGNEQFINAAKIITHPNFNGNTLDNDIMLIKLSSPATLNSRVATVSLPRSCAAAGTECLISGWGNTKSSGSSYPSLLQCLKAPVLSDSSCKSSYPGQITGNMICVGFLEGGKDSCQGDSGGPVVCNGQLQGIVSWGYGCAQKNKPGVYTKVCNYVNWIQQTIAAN
CAAX prenyl protease 2, sequence (Q9Y256 whole entry): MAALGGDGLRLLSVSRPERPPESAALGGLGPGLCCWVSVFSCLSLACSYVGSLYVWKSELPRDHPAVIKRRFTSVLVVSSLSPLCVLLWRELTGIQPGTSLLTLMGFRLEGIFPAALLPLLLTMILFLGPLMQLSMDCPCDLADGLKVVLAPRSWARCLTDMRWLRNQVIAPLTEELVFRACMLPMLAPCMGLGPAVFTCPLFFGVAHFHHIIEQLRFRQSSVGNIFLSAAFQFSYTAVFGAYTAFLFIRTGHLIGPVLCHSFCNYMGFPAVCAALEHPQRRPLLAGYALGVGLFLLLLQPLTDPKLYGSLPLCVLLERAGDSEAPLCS
Cytochrome P450 3A4, sequence (P08684 whole entry): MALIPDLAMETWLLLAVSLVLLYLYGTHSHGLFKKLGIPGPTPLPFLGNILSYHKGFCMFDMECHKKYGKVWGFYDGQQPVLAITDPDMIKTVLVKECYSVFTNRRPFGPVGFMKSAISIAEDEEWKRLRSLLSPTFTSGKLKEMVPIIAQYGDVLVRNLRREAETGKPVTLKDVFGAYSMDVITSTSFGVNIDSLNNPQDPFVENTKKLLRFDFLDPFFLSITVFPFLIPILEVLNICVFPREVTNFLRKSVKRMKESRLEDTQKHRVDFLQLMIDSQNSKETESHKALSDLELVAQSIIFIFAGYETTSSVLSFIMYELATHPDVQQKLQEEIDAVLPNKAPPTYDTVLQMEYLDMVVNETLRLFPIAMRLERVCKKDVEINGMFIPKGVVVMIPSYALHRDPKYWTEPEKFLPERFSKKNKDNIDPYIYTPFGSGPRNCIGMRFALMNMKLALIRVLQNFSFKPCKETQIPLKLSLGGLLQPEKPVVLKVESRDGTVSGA
Ras and Rab interactor 1/Tyrosine-protein kinase ABL1, sequence (P00519 whole entry): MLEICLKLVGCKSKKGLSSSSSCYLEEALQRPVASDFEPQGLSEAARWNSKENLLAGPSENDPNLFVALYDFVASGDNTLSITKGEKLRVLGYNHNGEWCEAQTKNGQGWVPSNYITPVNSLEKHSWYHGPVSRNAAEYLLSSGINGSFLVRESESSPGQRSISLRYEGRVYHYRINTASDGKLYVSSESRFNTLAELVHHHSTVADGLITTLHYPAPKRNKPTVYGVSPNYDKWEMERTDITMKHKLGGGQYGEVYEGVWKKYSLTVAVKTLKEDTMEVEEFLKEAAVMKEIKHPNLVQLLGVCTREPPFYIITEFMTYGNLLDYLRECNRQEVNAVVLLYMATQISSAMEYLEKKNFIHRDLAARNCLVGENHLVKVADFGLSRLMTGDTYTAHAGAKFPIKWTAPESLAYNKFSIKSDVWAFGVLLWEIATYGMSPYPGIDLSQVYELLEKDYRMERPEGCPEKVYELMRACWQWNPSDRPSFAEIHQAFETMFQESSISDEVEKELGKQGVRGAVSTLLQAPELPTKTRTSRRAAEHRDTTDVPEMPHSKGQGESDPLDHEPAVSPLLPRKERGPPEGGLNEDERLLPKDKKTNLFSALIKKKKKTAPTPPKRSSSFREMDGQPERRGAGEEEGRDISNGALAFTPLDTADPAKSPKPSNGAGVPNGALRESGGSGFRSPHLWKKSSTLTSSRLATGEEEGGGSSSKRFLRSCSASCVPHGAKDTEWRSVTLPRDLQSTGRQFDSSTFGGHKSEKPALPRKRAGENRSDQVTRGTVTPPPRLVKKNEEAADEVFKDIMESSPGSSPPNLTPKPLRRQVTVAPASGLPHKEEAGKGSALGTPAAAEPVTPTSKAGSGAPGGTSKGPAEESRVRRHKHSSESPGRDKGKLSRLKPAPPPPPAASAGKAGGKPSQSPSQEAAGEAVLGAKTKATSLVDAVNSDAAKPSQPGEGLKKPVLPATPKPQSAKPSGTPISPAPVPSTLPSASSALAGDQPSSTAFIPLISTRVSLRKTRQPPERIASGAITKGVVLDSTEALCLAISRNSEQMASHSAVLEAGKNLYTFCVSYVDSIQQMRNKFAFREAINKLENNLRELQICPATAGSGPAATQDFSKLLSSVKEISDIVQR
Ras and Rab interactor 1/Tyrosine-protein kinase ABL1, sequence (Q13671 whole entry): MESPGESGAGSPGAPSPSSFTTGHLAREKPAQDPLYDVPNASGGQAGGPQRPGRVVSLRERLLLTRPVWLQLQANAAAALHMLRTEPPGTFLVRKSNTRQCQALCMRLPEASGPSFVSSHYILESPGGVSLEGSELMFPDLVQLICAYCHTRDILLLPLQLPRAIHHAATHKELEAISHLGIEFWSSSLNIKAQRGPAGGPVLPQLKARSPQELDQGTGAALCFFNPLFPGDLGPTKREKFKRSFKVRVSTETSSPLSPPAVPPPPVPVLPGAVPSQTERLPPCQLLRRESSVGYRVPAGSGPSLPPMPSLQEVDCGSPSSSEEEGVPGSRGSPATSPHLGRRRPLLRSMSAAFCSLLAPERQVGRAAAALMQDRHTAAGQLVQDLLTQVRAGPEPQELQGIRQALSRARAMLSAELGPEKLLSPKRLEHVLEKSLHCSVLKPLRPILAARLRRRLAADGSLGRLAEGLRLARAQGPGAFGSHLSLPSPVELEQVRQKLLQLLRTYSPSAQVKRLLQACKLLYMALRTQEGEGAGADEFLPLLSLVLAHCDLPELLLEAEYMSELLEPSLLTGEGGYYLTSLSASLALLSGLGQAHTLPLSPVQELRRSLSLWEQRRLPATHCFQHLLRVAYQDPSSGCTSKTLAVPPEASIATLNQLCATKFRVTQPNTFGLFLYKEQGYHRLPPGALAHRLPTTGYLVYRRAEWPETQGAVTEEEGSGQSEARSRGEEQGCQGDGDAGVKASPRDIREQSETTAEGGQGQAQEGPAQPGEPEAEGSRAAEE
COUP transcription factor 2, sequence (P24468 whole entry): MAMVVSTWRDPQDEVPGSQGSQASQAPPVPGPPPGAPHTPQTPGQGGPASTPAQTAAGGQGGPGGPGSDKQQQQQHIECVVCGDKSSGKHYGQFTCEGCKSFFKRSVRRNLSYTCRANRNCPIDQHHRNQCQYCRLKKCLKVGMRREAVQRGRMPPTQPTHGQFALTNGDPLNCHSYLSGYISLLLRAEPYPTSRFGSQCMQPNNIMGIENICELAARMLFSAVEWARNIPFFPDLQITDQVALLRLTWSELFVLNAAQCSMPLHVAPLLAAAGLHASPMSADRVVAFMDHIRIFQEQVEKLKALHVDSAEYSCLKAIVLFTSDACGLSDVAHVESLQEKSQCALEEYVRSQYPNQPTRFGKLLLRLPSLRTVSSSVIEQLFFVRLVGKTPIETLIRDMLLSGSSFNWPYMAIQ

EC50 [1]: 51.3 µM (active) | EC50 [2]: 74 µM (active) | EC50 [3]: 60.4 µM (active) | EC50 [4]: 75.8 µM (active)
Compound: COc1ccccc1CN1CCC(n2nccc2NC(=O)CCCc2ccccc2)CC1

Compound: C=CC[n+]1c(-c2ccc(Cl)cc2Cl)csc1Nc1c(C)n(C)n(-c2ccccc2)c1=O
EC50 (HEK293 [5]): 5.29 µM (active) | IC50 (HEK293 [6]): 6.87 µM (active) | IC50 (HEK293 [7]): > 20 µM (inactive) | IC50 (HEK293 [8]): 7.13 µM (active) | IC50 [9]: 9.47 µM (active)

AC50 (Cytochrome P450 2C9 [10]): 25.1 µM (inconclusive) | AC50 (Cytochrome P450 3A4): inconclusive
Compound: O=C(c1ccco1)N1CCC2(CC1)CN(C(c1ccccc1)c1ccccc1)C2

EC50 [1]: 88 µM (active) | EC50 [2]: 82.8 µM (active) | EC50 [3]: 67.3 µM (active) | EC50 [4]: 66.1 µM (active) | IC50 [11]: 16.4 µM (inactive)
Compound: CC(C)n1cc(CN2CCC(C(=O)Nc3cccc(-c4cccc(Cl)c4)c3)CC2)cn1

AC50 (Trypsin): 1.72 µM (active) | AC50 (CAAX prenyl protease 2): 17.7 µM (active) | AC50 (Cytochrome P450 2C9 [12]): inconclusive
Compound: O=C1CCCN1CC(O)CS(=O)(=O)c1ccccc1 (stereo not given)

Compound: CCCNC(=O)c1ccccc1NC(=O)c1ccccc1N(C)S(=O)(=O)c1ccccc1
AC50 [13]: 1.83 µM (active) | AC50 [14]: 3.19 µM (active) | AC50 [15]: 3.2 µM (active) | AC50 [16]: 8.47 µM (active) | EC50 (HEK293 [17]): > 59.6 µM (inactive) | EC50 (HEK293 [18]): > 59.6 µM (inactive)
